Assay results from patent US20260115346A1, “METHOD AND DEVICE FOR DI[…]/OR S[…]” (SCHWING TECHNOLOGIES GMBH, priority 2022, published 2026).

Columns and labels:
[1] = test system: spores of the bacterium Geobacillus stearothermophilis; experiment: Validation tests for disinfection of spore strips SAL 10^5; assay type: cell-based, Geobacillus stearothermophilus; conditions: for Biological result #not sterile/#tested: 50-55° C.
[2] = test system: spores of the bacterium Geobacillus stearothermophilis; experiment: Validation tests for disinfection of laboratory utensils dripped with spore suspension SAL 10^6; assay type: cell-based, Geobacillus stearothermophilus; conditions: for Biological result #not sterile/#tested: PES in solution 4%
germs = experiment: Disinfection and sterilization process on various objects, number of germs after treatment; conditions: 55° C., 20 mbar; for Number of germs/m^3 after disinfection: 1.5 g/m^3 PES, 15 min; for Number of germs/m^3 after sterilization: 4 g/m^3 PES, 30 min
Protocol: Various objects were treated with the method according to the invention in order to disinfect and sterilize them.
The following process parameters were used in the disinfection process:
The following process parameters were used in the sterilization process: […]

[3] = test system: human patellar tendon allografts; conditions: in vitro study; cited from earlier work
[4] = object: Mobile electronic display device

Compound: CC(=O)OO [PES, peracetic acid]
- subsequent growth or multiplication of the spores ([1]; all the spore strips tested at different PES concentrations and different process times): No subsequent growth or multiplication of the spores could be detected
- Biological result #not sterile/#tested ([1]; test 1, PES in solution 6%, 3 g/m^3 PES in process chamber, 240 min): 0/2
- Biological result #not sterile/#tested ([1]; test 2, PES in solution 6%, 3 g/m^3 PES in process chamber, 120 min): 0/1
- Biological result #not sterile/#tested ([1]; test 3, PES in solution 6%, 1.7 g/m^3 PES in process chamber, 150 min): 0/2
- Biological result #not sterile/#tested ([1]; test 4, PES in solution 4%, 2 g/m^3 PES in process chamber, 120 min): 0/1
- Biological result #not sterile/#tested ([1]; test 5, PES in solution 4%, 1.9 g/m^3 PES in process chamber, 120 min): 0/2
- Biological result #not sterile/#tested ([1]; test 6, PES in solution 4%, 1.9 g/m^3 PES in process chamber, 90 min): 0/2
- Biological result #not sterile/#tested ([1]; test 7, PES in solution 4%, 1.9 g/m^3 PES in process chamber, 60 min): 0/4
- Biological result #not sterile/#tested ([1]; test 8, PES in solution 4%, 1.9 g/m^3 PES in process chamber, 45 min): 0/1
- Biological result #not sterile/#tested ([1]; test 9, PES in solution 4%, 1.9 g/m^3 PES in process chamber, 40 min): 0/2
- Biological result #not sterile/#tested ([1]; test 10, PES in solution 4%, 1.9 g/m^3 PES in process chamber, 30 min): 0/2
- Biological result #not sterile/#tested ([1]; test 11, PES in solution 4%, 1.9 g/m^3 PES in process chamber, 20 min): 0/2
- Biological result #not sterile/#tested ([1]; test 12, PES in solution 4%, 1.9 g/m^3 PES in process chamber, 15 min): 0/1
- Biological result #not sterile/#tested ([1]; test 13, PES in solution 4%, 1.9 g/m^3 PES in process chamber, 10 min): 0/1
- Biological result #not sterile/#tested ([1]; test 14, PES in solution 4%, 1.9 g/m^3 PES in process chamber, 5 min): 0/1
- Biological result #not sterile/#tested ([1]; test 15, PES in solution 4%, 1.7 g/m^3 PES in process chamber, 20 min): 0/1
- Biological result #not sterile/#tested ([1]; test 16, PES in solution 4%, 1.7 g/m^3 PES in process chamber, 15 min): 0/1
- Biological result #not sterile/#tested ([1]; test 17, PES in solution 4%, 1.5 g/m^3 PES in process chamber, 240 min): 0/2
- Biological result #not sterile/#tested ([1]; test 18, PES in solution 4%, 1.5 g/m^3 PES in process chamber, 150 min): 0/2
- Biological result #not sterile/#tested ([1]; test 19, PES in solution 4%, 1.3 g/m^3 PES in process chamber, 20 min): 0/1
- Biological result #not sterile/#tested ([1]; test 20, PES in solution 4%, 1.3 g/m^3 PES in process chamber, 15 min): 0/1
- Biological result #not sterile/#tested ([1]; test 21, PES in solution 4%, 0.94 g/m^3 PES in process chamber, 60 min): 0/5
- Biological result #not sterile/#tested ([1]; test 22, PES in solution 4%, 0.94 g/m^3 PES in process chamber, 40 min): 0/1
- Biological result #not sterile/#tested ([1]; test 23, PES in solution 4%, 0.94 g/m^3 PES in process chamber, 30 min): 0/2
- Biological result #not sterile/#tested ([1]; test 24, PES in solution 4%, 0.94 g/m^3 PES in process chamber, 20 min): 0/2
- Biological result #not sterile/#tested ([1]; test 25, PES in solution 4%, 0.94 g/m^3 PES in process chamber, 15 min): 0/1
- Biological result #not sterile/#tested ([1]; test 26, PES in solution 4%, 0.94 g/m^3 PES in process chamber, 10 min): 0/1
- Biological result #not sterile/#tested ([1]; test 27, PES in solution 4%, 0.94 g/m^3 PES in process chamber, 5 min): 0/1
- Biological result #not sterile/#tested ([1]; test 28, PES in solution 4%, 0.47 g/m^3 PES in process chamber, 60 min): 0/1
- Biological result #not sterile/#tested ([1]; test 29, PES in solution 4%, 0.47 g/m^3 PES in process chamber, 30 min): 0/1
- Biological result #not sterile/#tested ([1]; test 30, PES in solution 4%, 0.47 g/m^3 PES in process chamber, 15 min): 0/1
- Biological result #not sterile/#tested ([1]; test 31, PES in solution 4%, 0.47 g/m^3 PES in process chamber, 10 min): 0/1
- Biological result #not sterile/#tested ([1]; test 32, PES in solution 4%, 0.47 g/m^3 PES in process chamber, 5 min): 0/1
- Biological result #not sterile/#tested ([2]; test 5, 1.9 g/m^3 PES in process chamber, 120 min, growth after seven days): 0/4
- Biological result #not sterile/#tested ([2]; test 7, 1.9 g/m^3 PES in process chamber, 60 min, growth after seven days): 0/4
- Biological result #not sterile/#tested ([2]; test 8, 1.9 g/m^3 PES in process chamber, 45 min, growth after seven days): 0/4
- Biological result #not sterile/#tested ([2]; test 12, 1.9 g/m^3 PES in process chamber, 15 min, growth after seven days): 0/4
- Biological result #not sterile/#tested ([2]; test 13, 1.9 g/m^3 PES in process chamber, 10 min, growth after seven days): 0/4
- Biological result #not sterile/#tested ([2]; test 14, 1.9 g/m^3 PES in process chamber, 5 min, growth after seven days): 0/4
- Biological result #not sterile/#tested ([2]; test 15, 1.7 g/m^3 PES in process chamber, 20 min, growth after seven days): 0/4
- Biological result #not sterile/#tested ([2]; test 16, 1.7 g/m^3 PES in process chamber, 15 min, growth after seven days): 0/4
- Biological result #not sterile/#tested ([2]; test 19, 1.3 g/m^3 PES in process chamber, 20 min, growth after seven days): 0/4
- Biological result #not sterile/#tested ([2]; test 20, 1.3 g/m^3 PES in process chamber, 15 min, growth after seven days): 0/4
- Biological result #not sterile/#tested ([2]; test 21, 0.94 g/m^3 PES in process chamber, 60 min, growth after seven days): 0/4
- Biological result #not sterile/#tested ([2]; test 22, 0.94 g/m^3 PES in process chamber, 40 min, growth after seven days): 0/4
- Biological result #not sterile/#tested ([2]; test 23, 0.94 g/m^3 PES in process chamber, 30 min, not sterile: pipette): (pipette) 1/8
- Biological result #not sterile/#tested ([2]; test 24, 0.94 g/m^3 PES in process chamber, 20 min, growth after seven days): 0/8
- Biological result #not sterile/#tested ([2]; test 25, 0.94 g/m^3 PES in process chamber, 15 min, not sterile: pipette): (pipette) 1/4
- Biological result #not sterile/#tested ([2]; test 26, 0.94 g/m^3 PES in process chamber, 10 min, growth after seven days): 0/4
- Biological result #not sterile/#tested ([2]; test 27, 0.94 g/m^3 PES in process chamber, 5 min, not sterile: pipette): (pipette) 1/4
- Biological result #not sterile/#tested ([2]; test 28, 0.47 g/m^3 PES in process chamber, 60 min, growth after seven days): 0/4
- Biological result #not sterile/#tested ([2]; test 29, 0.47 g/m^3 PES in process chamber, 30 min, growth after seven days): 0/4
- Biological result #not sterile/#tested ([2]; test 30, 0.47 g/m^3 PES in process chamber, 15 min, not sterile: Eppi): (Eppi) 1/4
- Biological result #not sterile/#tested ([2]; test 31, 0.47 g/m^3 PES in process chamber, 10 min, not sterile: pipette): (pipette) 1/4
- Biological result #not sterile/#tested ([2]; test 32, 0.47 g/m^3 PES in process chamber, 5 min, not sterile: mask, pipette): (mask, pipette) 2/4
- growth of the spores after seven days in nutrient solution ([2]; various experiments, relatively low PES concentration in the process chamber, short process duration): spore growth was observed after seven days
- Number of germs/m^3 after disinfection (germs; object: FFP mask): 1220 germs/m^3
- Number of germs/m^3 after sterilization (germs; object: FFP mask): germ-free
- Number of germs/m^3 after disinfection (germs; object: Infusomat): 1160 germs/m^3
- Number of germs/m^3 after sterilization (germs; object: Infusomat): germ-free
- Number of germs/m^3 after disinfection (germs; object: MNS): 870 germs/m^3
- Number of germs/m^3 after sterilization (germs; object: MNS): germ-free
- Number of germs/m^3 after disinfection (germs; [4]): 430 germs/m^3
- Number of germs/m^3 after sterilization (germs; [4]): germ-free
- Number of germs/m^3 after disinfection (germs; object: Surgical clogs): 1370 germs/m^3
- Number of germs/m^3 after sterilization (germs; object: Surgical clogs): germ-free
- Number of germs/m^3 after disinfection (germs; object: blower filter unit): 1740 germs/m^3
- Number of germs/m^3 after sterilization (germs; object: blower filter unit): germ-free
- Number of germs/m^3 after disinfection (germs; object: disposable gloves): 920 germs/m^3
- Number of germs/m^3 after sterilization (germs; object: disposable gloves): germ-free
- Number of germs/m^3 after disinfection (germs; object: protective overalls): 270 germs/m^3
- Number of germs/m^3 after sterilization (germs; object: protective overalls): germ-free
- Number of germs/m^3 after disinfection (germs; object: visor): 360 germs/m^3
- Number of germs/m^3 after sterilization (germs; object: visor): germ-free
- cytotoxic or pro-inflammatory effect [3]: no cytotoxic or pro-inflammatory effect
